Data as given in patent US20240189373A1, “BACTERIOPHAGE COMPOSITIONS FOR TREATING STAP[…]” (priority 2020, published 2024).

Tested on: S. aureus strains
Experiment: microbe, parasite or virus in culture
Assay type: cell-based
Procedure: Grey boxes indicate lines on graph depicted in FIG. 5B. […] Vancomycin, 16 μg/mL; AP-SA02, 0.1 pg/mL.
FIG. 6A is data showing bacterial growth measured by turbidity (absorbance at 600 nm) in the presence of AP-SA02 and vancomycin in a checkerboard assay. Grey boxes show lines on graph depicted in FIG. 6B. […] Vancomycin, 2 μg/mL.
Standard therapy for subjects with a S. aureus infection includes vancomycin and daptomycin. Since subjects who receive AP-SA02 are likely to be on these therapies, the effect of AP-SA02 on these antibiotics and vice versa was assessed. Using the standard checkerboard assay, the minimum inhibitory concentration of each antimicrobial alone or in combination with each other, was used to calculate whether two antimicrobials are synergistic, antagonistic, or indifferent (Table 3).

Which MIC (Staphylococcus aureus) does the source give for `CN[C@H](CC(C)C)C(=O)N[C@H]1C(=O)N[C@@H](CC(N)=O)C(=O)N[C@H]2C(=O)N[C@H]3C(=O)N[C@H](C(=O)N[C@H](C(=O)O)c4cc(O)cc(O)c4-c4cc3ccc4O)[C@H](O)c3ccc(c(Cl)c3)Oc3cc2cc(c3O[C@@H]2O[C@H](CO)[C@@H](O)[C@H](O)[C@H]2O[C@H]2C[C@](C)(N)[C@H](O)[C@H](C)O2)Oc2ccc(cc2Cl)[C@H]1O` [vancomycin] here?
The MIC was > 16 µg/mL.

And the “breakpoint for vancomycin in the presence of phage” value (changed from resistant or intermediate to the sensitive range)?
Its value is 0.5 to 2 µg/mL.
